The target of the experiment is T1, Protein skinhead-1 (Caenorhabditis elegans, UniProt P34707).
T1 sequence (P34707 whole entry): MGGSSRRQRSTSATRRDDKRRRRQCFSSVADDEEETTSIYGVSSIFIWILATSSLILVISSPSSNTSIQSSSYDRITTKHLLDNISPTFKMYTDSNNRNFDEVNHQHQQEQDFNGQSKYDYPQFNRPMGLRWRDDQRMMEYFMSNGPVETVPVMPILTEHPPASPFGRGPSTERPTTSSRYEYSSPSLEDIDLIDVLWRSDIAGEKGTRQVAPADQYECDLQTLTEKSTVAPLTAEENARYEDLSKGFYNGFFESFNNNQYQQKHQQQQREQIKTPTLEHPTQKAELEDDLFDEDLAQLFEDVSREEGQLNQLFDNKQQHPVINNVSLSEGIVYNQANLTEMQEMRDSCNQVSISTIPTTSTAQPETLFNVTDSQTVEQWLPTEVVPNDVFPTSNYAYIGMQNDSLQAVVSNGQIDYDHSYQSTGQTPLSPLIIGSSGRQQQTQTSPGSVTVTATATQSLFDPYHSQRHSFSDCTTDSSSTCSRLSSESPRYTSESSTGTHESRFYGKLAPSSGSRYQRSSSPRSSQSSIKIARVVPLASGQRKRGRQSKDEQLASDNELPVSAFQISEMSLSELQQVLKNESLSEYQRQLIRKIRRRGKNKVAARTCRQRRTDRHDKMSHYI

Where [1] appears, read: inactive by the depositor's call.

The structures appear in SMILES notation. Values joined by “and” are separate entries in the source; they are usually repeats but may differ in a detail not shown here. Equal entries are not always repeated. Structures can show the parent of a compound that is named as a salt. Numbered stars: 1 amine (or outer) side, 2 acyl side, 3 side chain; on linkers, the order of the positions; unused ones are H or OH. Bridge positions count the residues as written; N and C are the ends. Square brackets hold non-standard residues; d marks the D form. Peptide text beside a SMILES is read from it. ξ: configuration not given here. X1 = CC[C@H](CCC[C@@H](O)[C@@H](C)C(=O)O[C@H](C)[C@@H](C)C/C=C(C)\C(=C/C(=O)[*:1])OC)O[*:2]; NMeξIle = CC[C@H](C)C(NC)C(=O)O; NMeV = CN[C@H](C(=O)O)C(C)C; NMeS = CN[C@@H](CO)C(=O)O A value given as a limit tells only on which side of the number the result lay.

Regarding `COC(=O)c1cc(=O)nc2sccn12`, the IC50 (in general, the concentration that inhibits the measured activity by half) was 21.9 µM. On the same count and under the same terms, the result for `CN(C)c1ccc(N=CCC(=O)c2ccco2)cc1` reads 70.5 µM; that for `O=C(CC=Nc1cccc(F)c1)c1cccs1`, 46.7 µM. Still for that read-out and setting: as for `O=C1/C(=C/c2ccccn2)CCc2ccccc21`, the figure is 78.5 µM; as for `Nc1ccc(/C=C2\C=Cc3ccccc32)cc1`, 45 µM; as for `Cc1ccc2nc(-c3cccnc3)c(NC3CCCCC3)n2c1`, 23.5 µM. Same read-out and setting: as for `Cc1ccc(N=CC(C(=O)c2ccco2)C(=O)C(F)(F)F)cc1Cl` (stereo unspecified) [2-{[(3-chloro-4-methylphenyl)amino]methylene}-4,4,4-trifluoro-1-(2-furyl)-1,3-butanedione], the figure is 14.3 µM. As for `O=C(c1ccco1)C(C=Nc1ccc(Br)cc1)C(=O)C(F)(F)F` (stereo unspecified) [2-{[(4-bromophenyl)amino]methylene}-4,4,4-trifluoro-1-(2-furyl)-1,3-butanedione], it took 21 µM to reach half-maximal inhibition (IC50). This IC50 and that of the compound before are within 1.5-fold of each other.

In the case of `O=C(CC=Nc1ccc(F)c(F)c1)c1cccs1` [3-[(3,4-difluorophenyl)amino]-1-(2-thienyl)-2-propen-1-one], inhibition was half-maximal at 11.4 µM (IC50). Still for that read-out and setting: the result for `Cc1ccc(N=CCC(=O)c2cccs2)cc1` [3-[(4-methylphenyl)amino]-1-(2-thienyl)-2-propen-1-one] reads 60.3 µM; that for `O=C1C=CC(=O)c2c(O)c(N3CCN(CCOCCO)CC3)c(Br)c(O)c21` [6-bromo-5,8-dihydroxy-7-[4-[2-(2-hydroxyethoxy)ethyl]piperazin-1-yl]naphthalene-1,4-dione;hydrochloride], 75.5 µM; that for `COC(=O)[C@]12OC[C@]34[C@H]([C@@H](O)[C@@H]1O)[C@@]1(C)CC(=O)C(=O)C(C)[C@@H]1C[C@H]3OC(=O)[C@H](OC(=O)/C=C(\C)C(C)C)[C@@H]24` (stereo partly drawn) [10,15,16-trihydroxy-9,13-dimethyl-17-methyloxycarbonyl-4,11-dioxo-(1R,2S,3R,6R,8R,13S,14R,15R,16S,17R)-5,18-dioxapentacyclo[12.5.0.01,6.02,17.08,13]nonadec-9-en-3-yl 3,4-dimethyl-(E)-2-pentenoate], 75.3 µM.

For `O=C1N[C@@H]2C(=C[C@H](O)[C@@H](O)[C@H]2O)c2cc3c(c(O)c21)OCO3` [(2S,3R,4S,4aR)-2,3,4,7-Tetrahydroxy-3,4,4a,5-tetrahydro-2H-[1,3]dioxolo[4,5-j]phenanthridin-6-one], half-maximal inhibition (IC50) was put at 51.4 µM. Regarding `Cc1cccc(C=CC(=O)c2ccc(N=C3NCCCS3)cc2)c1` [(E)-1-[4-(5,6-dihydro-4H-1,3-thiazin-2-ylamino)phenyl]-3-(3-methylphenyl)prop-2-en-1-one], the IC50 under setting [1] was found to be 79.9 µM. Regarding `O=C(CC=Nc1ccc(F)cc1F)c1ccco1` [(E)-3-(2,4-difluoroanilino)-1-(2-furanyl)-2-propen-1-one], the IC50 worked out at 22.7 µM. That is a double-digit micromolar value. Still for that read-out and setting: as for `O=C(CC=Nc1ccc(F)c(Cl)c1)c1ccco1` [(E)-3-(3-chloro-4-fluoroanilino)-1-(furan-2-yl)prop-2-en-1-one], the figure is 16.7 µM; as for `Cc1ccc(Cl)c(N=CCC(=O)c2ccccc2)c1` [(E)-3-[(2-chloranyl-5-methyl-phenyl)amino]-1-phenyl-prop-2-en-1-one], 68.8 µM. Take `O=C(CC=Nc1ccccc1F)c1cccs1` [(E)-3-[(2-fluorophenyl)amino]-1-thiophen-2-yl-prop-2-en-1-one]: the IC50 is 27.9 µM. Still for that read-out and setting: as for `O=C(CC=Nc1ccc(F)cc1F)c1cccs1` [(E)-3-[[2,4-bis(fluoranyl)phenyl]amino]-1-thiophen-2-yl-prop-2-en-1-one], the figure is 5.04 µM. Consider `O=C(CC=Nc1ccccn1)c1ccccc1` [(Z)-1-phenyl-3-(pyridin-2-ylamino)prop-2-en-1-one], for which the IC50 was determined as 53.7 µM. The same measure, in the same setting: as for `O=C(C=Cc1ccc(Br)cc1)c1ccc(N=C2NCCCS2)cc1` [MLS000391412], the figure is 18.3 µM.

On to `Cc1cc(C)c2ccc3c(C)c(C)[nH]c3c2n1` [MLS000729064], for which the IC50 was 41.1 µM. Turning to `CC[C@@H]1CCC[C@@H](O)[C@@H](C)C(=O)O[C@H](C)[C@@H](C)C/C=C(C)\C(OC)=C/C(=O)N(C)C([C@@H](C)CC)C(=O)N(C)[C@@H](C(C)C)C(=O)N(C)[C@@H](COC)C(=O)N2CCC[C@H]2C(=O)N(C)[C@@H](C(C)C)C(=O)N2CCC[C@H]2C(=O)O1` (stereo partly specified) [MLS003235796] ([NMeξIle][NMeV][NMeS](Me)P[NMeV]P; linker N-C via X1), the IC50 came to 82.4 µM. On the same count and under the same terms, as for `O=C(/N=C1\[N-]c2ccc(Br)c[n+]2Cc2ccccc21)c1ccc([N+](=O)[O-])cc1[N+](=O)[O-]` [N-(2-bromanyl-11H-pyrido[1,2-b][2,4]benzodiazepin-6-ylidene)-2,4-dinitro-benzamide], the figure is 2.78 µM; as for `CCOC(=O)c1c(C)oc2c(F)c(F)c(F)c(F)c2c1=O` [SMR000041624], 45.5 µM; as for `C=c1[nH]n(-c2ccccc2)c(=O)c1=CC=C1N(C)c2ccccc2C1(C)C` [SMR000175131], 87.3 µM and 14.4 µM. Consider `CC1CCCCN1Cc1c(O)ccc2c(=O)c(-c3nc4ccccc4s3)c(N)oc12` (stereo unspecified) [SMR000218869], for which 6.82 µM corresponded to half-maximal inhibition (IC50). `O=C(CC=Nc1ccc(Br)cc1)c1cccnc1` [SMR000225438] had an IC50 of 68.9 µM. On the same count and under the same terms, the result for `O=C(CC=Nc1ccc(Br)cc1F)c1ccco1` [SMR000293180] reads 2.19 µM. Regarding `O=C1C2=CCC=CC2Oc2ccc(Br)cc21` (stereo unspecified) [SMR000327218], the IC50 is over 100 µM. In turn, `Cn1ccs/c1=N/C(=O)c1ccc(OC(F)(F)F)cc1` [SMR000589314] yielded an IC50 under setting [1] of 61.9 µM.

The values are drawn from BindingDB's records for doi:10.7270/Q2DV1HH8 (Burnham Center For Chemical Genomics, 2012).
